We go through twelve molecules from PMC7401278, “Sortase A-Inhibitory Metabolites from a Marine-Derived Fungus Aspergillus sp” (Marine Drugs, 2020).

The structures appear in SMILES notation. In brackets after ≈: the same amount, converted by molar mass. Where two headings read alike, the source gives them in different places.

Data set [1] is described as follows: Cytotoxicity assay (SRB), A549. It is filed as cell-based. The following applies: human, A549 (lung cancer) cells, A549, 72 h. How it is done:
(§1) Because SrtA inhibitors are expected to serve as anti-infective agents and inhibit bacterial pathogenesis without affecting cell viability, the minimum inhibitory concentrations (MICs) of these compounds were also measured to exclude the possible effects of test compounds on S. aureus cell adhesion to the eukaryotic cell matrix protein fibronectin owing to the inhibition of cell growth.
(§2) The effect of compounds (1–8) on cell proliferation was measured by the sulforhodamine B (SRB) cellular protein-staining method. In brief, A549 (lung cancer) and K562 (leukemia) cells (1 × 10^4 cells in 190 μL of complete DMEM) were seeded in 96-well plates with various concentrations of compounds (1–8) and incubated at 37 °C in a humidified atmosphere with 5% CO2. After 72 h of compound (1–8) treatment, the cells were fixed with 10% TCA solution for 1 h, and cellular proteins were stained with a solution of 0.4% SRB in 1% acetic acid. The stained cells were dissolved in 10 mM Tris buffer (pH 10.0). The effect of compounds (1–8) on cell viability was calculated as a percentage relative to a solvent-treated control, and the IC50 values were calculated using a nonlinear regression analysis (percent survival versus concentration). Etoposide was used as a positive control.

Data set [2] concerns the target T1, recombinant SrtA derived from S. aureus ATCC6538p (Staphylococcus aureus, UniProt Q2FV99).
T1 construct: made in house; host or cells: Escherichia coli
Nature of the data set: SrtA inhibition assay (fluorescence, cleavage of dabcyl-LPETG-edans). It is filed as biochemical. To be noted: 37 °C, 1 h. The protocol: Recombinant SrtA derived from S. aureus ATCC6538p was purified from Escherichia coli extracts using metal chelate-affinity chromatography. The enzyme activity was determined from the fluorescence intensity upon cleavage of a peptide substrate containing the LPETG motif. Throughout the separation process, the crude extract and chromatographic fractions containing fungal metabolites of strain F452 inhibited the activity of SrtA. Accordingly, the same bioassay was performed using pure compounds.
The srtA gene from S. aureus ATCC6538p was expressed and recombinant SrtA was purified as previously described. The SrtA inhibition test was carried out by analyzing the increased fluorescence intensity resulting from the cleavage of synthetic peptide substrate dabcyl-LPETG-edans (AnaSpec, Inc., Fremont, CA, USA) with slight modification. The reaction was carried out with 100 μL buffer (50 mM Tris-HCl, 5 mM CaCl2, and 150 mM NaCl, pH 7.5), 7.5 µM synthetic peptide, 7.5 µM purified SrtA, and test samples at various concentrations. […] The SrtA inhibition assay was conducted at 37 °C for 1 h, and inhibition was quantified fluorometrically using a microplate reader (FLx800, BioTek Instruments, Winooski, VT, USA) at excitation and emission wavelengths of 350 and 495 nm, respectively. pHMB and berberine chloride were used as reference inhibitors of SrtA.

For data set [3], the system named is S. aureus ATCC6538p. As to the kind of experiment: Antibacterial activity assay (MIC). It is filed as cell-based. To be noted: Staphylococcus aureus, overnight at 37 °C. How it is done:
as §1
The MICs of test compounds were determined as previously described. S. aureus ATCC6538p (5 mL) was cultured in tryptic soy broth to saturation at 37 °C and diluted to an OD600 of 0.01. The culture was incubated for an additional 2 h and diluted to an OD600 of 0.005. In each well of a 96-well plate, 180 µL of cells was mixed with 20 µL of a concentrated test compound solution in 10% DMSO (final concentration, 1% DMSO). Culture plates were incubated overnight at 37 °C, and the OD600 was measured using a Multiskan Spectrum spectrophotometer (Thermo Labsystems Inc., Beverly, MA, USA). MIC values were defined as the lowest concentration of the test compounds inhibiting cell growth. Ampicillin was used as a positive control.

Data set [4] is described as follows: Cytotoxicity assay (SRB), K562. It is filed as cell-based. To be noted: human, K562 (leukemia) cells, K562, 72 h. How it is done:
as §1, §2

In data set [5] the target is T2, SrtA (Staphylococcus aureus, UniProt Q2FV99).
T2 construct: made in house; host or cells: Escherichia coli
As to the kind of experiment: SrtA enzyme kinetics (Lineweaver-Burk, Dixon plot, dialysis). Format: biochemical. To be noted: for type of inhibition: Lineweaver and Burk plot, at IC50 or twofold IC50; for binding to SrtA (reversibility): enzyme activity recovered by dialysis within 2 h. How it is done: To determine the type of inhibition, kinetic studies were performed with compounds 1 and 3 at IC50 or twofold IC50 based on a Lineweaver and Burk plot (Figure 2). Inhibitor constants were obtained by a Dixon plot. […] Moreover, the binding of compounds 1 and 3 to SrtA was reversible because the enzyme activity was indeed recovered by dialysis within 2 h, excluding the possible existence of a covalent bond between inhibitor and enzyme.
All sortase (SrtA) assays were performed at 37 °C in SrtA enzyme buffer as described above. The inhibitors 1 and 3 were dissolved in DMSO and immediately diluted to the desired working concentration with the same SrtA buffer. The enzymatic inhibition measurements were carried out at different substrate concentrations in the presence and absence of a given concentration of inhibitor, and their kinetics were evaluated by the Lineweaver and Burk plot method. For the dialysis kinetic studies, a solution of enzyme (0.96 mL, 75 μM) and fixed inhibitor concentration (0.04 mL) was prepared and dialyzed against 100 mL buffer at 37 °C for 2 h using regenerated cellulose dialysis membranes SPECTRAPOR® (Rancho Dominguez, CA, USA). Aliquots of 100 μL of the enzyme-inhibitor mixture were taken in time intervals of 0, 30, 60, 90, and 120 min and added to 0.020 mL of substrate (7.5 μM), and after an hour of incubation the enzyme activity was measured. A control solution prepared with enzyme and buffer (SrtA buffer, 100 μL; SrtA, 7.5 μM) was treated similarly.

Data set [6] deals with Colletotrichum acutatum. The arrangement: method as in PMID 26998701. The following applies: cited from earlier work.
Data set [7] has as its system PC-12 cells. Set-up: method as in PMID 14698172. The following applies: cited from earlier work.
Data set [8] has as its system S. aureus strain Newman (wild-type) adhesion to fibronectin. As to the kind of experiment: Fibronectin-binding assay. Format: cell-based, Staphylococcus aureus. The text has this: An active SrtA enzyme is required for the attachment of S. aureus to eukaryotic cell matrix proteins, such as fibronectin and fibrinogen, thus accelerating bacterial adhesion to host tissues and subsequent invasion. The srtA^− mutant strain cannot bind these proteins. Thus, SrtA inhibitors should inhibit SrtA activity in vivo and in turn reduce fibronectin-binding protein surface display. Initially, the SrtA-mediated fibronectin-binding capacities of S. aureus strain Newman (wild-type) and its isogenic srtA knockout mutant (srtA^−) to fibronectin were evaluated. […] Based on SrtA inhibition intensity, compound 1 was selected. The results of the inhibition of S. aureus adhesion to fibronectin via fibronectin-binding protein by compound 1 are shown in Figure 3b.
S. aureus strains used were Newman (wild-type) and the isogenic srtA knockout mutant (srtA^−). These strains were cultured in tryptic soy broth at 37 °C at 200 rpm up to mid-log phase (OD600 = 0.5). The fibronectin-binding assay was performed as described previously. Cells were treated with test compounds at their indicated concentrations. Every 30 min for 2.5 h, a 0.65 mL cell suspension was centrifuged at 10,000× g for 10 min, and the supernatant was eliminated. […] Plates were dried overnight and absorbance was measured at 560 nm using a microplate reader.

Data set [9] has as its system Bacillus subtilis. Set-up: method as in PMID 26363876. The following applies: cited from earlier work.
In data set [10] the test system is human prostate cancer cell line PC3. The arrangement: method as in PMID 26363876. To be noted: cited from earlier work.
Setting [11] is: SrtA IC50, recombinant SrtA, value in parentheses.

T2 sequence (Q2FV99 whole entry): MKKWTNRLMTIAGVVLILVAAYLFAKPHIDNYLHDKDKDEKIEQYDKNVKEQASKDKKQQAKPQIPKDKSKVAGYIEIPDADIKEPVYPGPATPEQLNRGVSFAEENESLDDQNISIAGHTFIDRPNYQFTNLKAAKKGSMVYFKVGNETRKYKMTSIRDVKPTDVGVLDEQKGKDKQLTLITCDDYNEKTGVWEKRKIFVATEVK
T1 sequence (Q2FV99 whole entry): as above

Consider `CCC1C(=O)N2c3ccccc3C3(O)CC(n4cnc5ccccc5c4=O)C(=O)N1C23` (stereo not drawn) [Compound 5, isochaetominine B], for which the IC50 at 72 h in data set [1] and in data set [4] was 13 to 50 µM each time. The IC50 in data set [2] (SrtA IC50, recombinant SrtA) was 232 ± 3.7 µM; in [2] (setting [11]) it was 232.4 ± 1.4 µM. Moreover, the figures for the minimum inhibitory concentration (MIC) in data set [3] and in data set [3] (value in parentheses) were above 307 µM and above 128 µg/mL, respectively.
On to `CCC(C)C1NC(=O)C(C(C)C)n2c1nc1c(c2=O)C=C(OC)C=CO1` (stereo not drawn) [Compound 3, versicoloid A], for which the IC50 at 72 h in [1] and in data set [4] was 13 to 50 µM throughout. Besides, the Ki in data set [5] is 83 µM. Further, the type of inhibition entry in data set [5] is listed as “uncompetitive inhibitor”. Besides, in data set [5], the “binding to SrtA (reversibility)” value is reported as “reversible”. Further, the IC50 in data set [2] (SrtA IC50, recombinant SrtA) amounted to 193 ± 2.5 µM; in [2] (setting [11]) it was 193.4 ± 0.899 µM. For the same molecule, the minimal inhibitory concentration (MIC) in data set [3] is above 356 µM; in data set [3] (value in parentheses) it was above 128 µg/mL. For the same molecule, in [6], the “minimum inhibitory concentration (MIC)” value was 1.6 µg/mL (≈ 4.45 µM).
For `O=C(O)c1cc[c]([Hg][OH])cc1` [pHMB, para-hydroxymercuribenzoic acid, reference compound], the IC50 in [2] (recombinant SrtA, read-out: SrtA IC50) was determined as 112 ± 1.7 µM. Besides, in data set [2] (recombinant SrtA, value in parentheses), the “SrtA IC50” value was 33.1 ± 0.5 µg/mL.
Take `CC1C(=O)N2c3ccccc3C3(O)CC(n4cnc5ccccc5c4=O)C(=O)N1C23` (stereo not drawn) [Compound 4, isochaetominine A]: the IC50 at 72 h in data set [1] and in data set [4] was 13 to 50 µM throughout. Moreover, the 50% inhibitory concentration (IC50) is 268 ± 4.1 µM in data set [2] (SrtA IC50, recombinant SrtA) and 267.9 ± 1.5 µM in [2] (setting [11]). Moreover, the values for the MIC in data set [3] and in [3] (value in parentheses) were above 318 µM and above 128 µg/mL, respectively.
For the molecule `COc1cc([C@@H]2c3cc4c(cc3[C@@H](O[C@@H]3O[C@@H]5CO[C@@H](C)O[C@H]5[C@H](O)[C@H]3O)[C@H]3COC(=O)[C@H]23)OCO4)cc(OC)c1O` [etoposide, reference compound], the IC50 at 72 h in data set [1] and in [4] was 0.5 µM in each case.
As for `COc1ccc2cc3[n+](cc2c1OC)CCc1cc2c(cc1-3)OCO2` [Berberine chloride, berberine chloride, reference compound], the IC50 in [2] (SrtA IC50, recombinant SrtA) is 85.9 ± 1.2 µM; in data set [2] (setting [11]) it was 94.8 µM. The MIC in [3] is above 332 µM; in data set [3] (value in parentheses) it was above 128 µg/mL.
For `CC1(C)S[C@@H]2[C@H](NC(=O)[C@H](N)c3ccccc3)C(=O)N2[C@H]1C(=O)O` [Ampicillin, reference compound], the MIC in [3] was 0.4 µM; in data set [3] (value in parentheses), 0.1 µg/mL.
For the molecule `CC1CCC2C(C=CC(C)(O)C2(C)C(=O)CCO)C1` (stereo not drawn) [Compound 1, aspermytin A], the IC50 at 72 h in data set [1] and in [4] was above 100 µM in each case. Besides, the neurotrophic effects result in data set [7] is reported as “significant neurotrophic effects”. The same molecule registered a Ki in data set [5] of 265 µM. The type of inhibition entry in data set [5] is recorded as “mixed inhibitor”. In data set [5], the “binding to SrtA (reversibility)” value is “reversible”. Besides, the IC50 in data set [2] (SrtA IC50, recombinant SrtA) was 146 ± 2.3 µM; in data set [2] (setting [11]) it was 146 ± 0.6 µM. Further, the MIC in data set [3] is above 480 µM; in data set [3] (value in parentheses), above 128 µg/mL. In [8] (4× the SrtA IC50 value), the “onset and magnitude of inhibition of Newman strain adhesion to fibronectin” value is “comparable to the behavior of the untreated srtA knockout mutant”. Moreover, the “bacterial adherence to fibronectin-coated surfaces” value in data set [8] (strain Newman, 0-, 1-, 2-, or 4-fold the SrtA IC50) was “significantly reduced”.
Turning to `CC12NC(=O)C(Cc3c1[nH]c1ccccc31)n1c2nc2ccccc2c1=O` (stereo not drawn) [Compound 8, fumiquinazoline K], the IC50 at 72 h in data set [1] and in data set [4] was above 100 µM in each case. Also, the IC50 in [2] (read-out: SrtA IC50, recombinant SrtA) was determined as 235 ± 2.6 µM; in data set [2] (read-out: SrtA IC50, recombinant SrtA, value in parentheses), 235.1 ± 0.9 µM. The MIC in [3] was above 359 µM; in [3] (value in parentheses) it was above 128 µg/mL.
As to `CC(C)C1C(=O)N2c3ccccc3C3(O)CC(n4cnc5ccccc5c4=O)C(=O)N1C23` (stereo not drawn) [Compound 6, isochaetominine C], the IC50 at 72 h in [1] and in data set [4] was 13 to 50 µM each time. The IC50 in [2] (SrtA IC50, recombinant SrtA) turned out to be 216 ± 2.5 µM; in [2] (setting [11]), 216.3 ± 1.1 µM. In addition, in data set [9], the “inhibition against Bacillus subtilis” value is “weak inhibition”. Further, the values for the minimum inhibitory concentration (MIC) in [3] and in [3] (value in parentheses) were above 297 µM and above 128 µg/mL, respectively.
On to `CCC(C)C1NC(=O)C(C(C)C)n2c1nc1ccc(OC)cc1c2=O` (stereo not drawn) [Compound 2, versicomide A], for which the IC50 at 72 h in data set [1] and in data set [4] was 13 to 50 µM throughout. Besides, the IC50 in data set [2] (SrtA IC50, recombinant SrtA) amounted to 269 ± 3.9 µM; in data set [2] (setting [11]), 269.3 ± 1.4 µM. For the same molecule, the results for the MIC in data set [3] and in [3] (value in parentheses) were above 373 µM and above 128 µg/mL, respectively.
Take `CC(C)C1C(=O)N2c3ccccc3C3(O)CC(n4cnc5ccccc5c4=O)C(=O)N1C23` (stereo not drawn) [Compound 7, 14-epi-isochaetominine C]: the IC50 in data set [2] (SrtA IC50, recombinant SrtA) stood at 237 ± 3.8 µM; in data set [2] (setting [11]) it was 237.2 ± 1.2 µM. The cytotoxic activity entry in data set [10] is “weak cytotoxic activity”.
